Among the data in patent US20090047243A1, “COMBINATIONS FOR THE TREATMENT OF B-CELL PROLIFERATIVE DISORDERS” (priority 2007, published 2009) are Induction of apoptosis and Ki values, retold here.

For one test, the system named is patient CLL cells. The test is described as follows: Apoptosis assay (Hoechst 33342, flow cytometry, 48 h). The following applies: CGS-21680 0 μM. Type of test: cell-based, human. Also noted: unit not given here. The text has this:
Blood samples were obtained in heparinized tubes with IRB-approved consent from flow cytometry-confirmed B-CLL patients that were either untreated or for whom at least 1 month had elapsed since chemotherapy. Patients with active infections or other serious medical conditions were not included in this study. Patients with white blood cell counts of less than 15,000/μl by automated analysis were excluded from this study. Whole blood was layered on Ficoll-Hystopaque (Sigma), and peripheral blood mononuclear cells (PBMC) isolated after centrification. […] One million cells were stained with anti-CD5-PE and anti-CD19-PE-Cy5 (Becton Dickenson, Franklin Lakes N.J.). The percentage of B-CLL cells was defined as the percentage of cells doubly expressing CD5 and CDl9, as determined by flow cytometry. […] Compound master plates were diluted 1:50 into complete media to create working compound dilutions. Compound crosses were then created by diluting two working dilution plates 1:10 into each plate of cells. […] Hoechst 33342 (Molecular Probes, Eugene Oreg.) at a final concentration of 0.25 μg/1 mL was added to each well, and the cells incubated at 37° C. for an additional ten minutes before being placed on ice until analysis. Plates were then analyzed on a LSR-II flow cytometer (Becton Dickenson, Franklin Lakes, N.J.) equipped with the High Throughput Sampling (HTS) option in high throughput mode. […] The apoptotic fraction was calculated using FlowJo software (Tree Star Inc., Ashland, Oreg.) after excluding debris by a FSC/SSC gate and subsequently gating for cells that accumulate the Hoechst dye.

The next test addresses A2A receptor (Homo sapiens, UniProt P29274). The note with it: cited from earlier work.

Where a name gives a salt, the structure may show the parent alone.

Chain of A2A receptor (P29274 whole entry): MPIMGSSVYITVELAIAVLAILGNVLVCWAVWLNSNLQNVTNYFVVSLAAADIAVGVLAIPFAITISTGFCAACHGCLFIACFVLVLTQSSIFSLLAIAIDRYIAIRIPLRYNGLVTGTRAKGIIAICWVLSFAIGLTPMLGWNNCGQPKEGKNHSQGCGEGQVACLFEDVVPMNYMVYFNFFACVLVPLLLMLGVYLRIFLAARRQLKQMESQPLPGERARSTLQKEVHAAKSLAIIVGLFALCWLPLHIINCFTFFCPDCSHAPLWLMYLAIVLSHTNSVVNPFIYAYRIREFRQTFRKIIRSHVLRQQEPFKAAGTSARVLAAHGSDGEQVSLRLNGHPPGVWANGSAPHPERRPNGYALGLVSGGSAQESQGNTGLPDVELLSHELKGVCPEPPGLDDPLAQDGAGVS

Turning to `COc1cc2c(cc1OC)-c1cc(=Nc3c(C)cc(C)cc3C)n(C)c(=O)n1CC2` [Trequinsin hydrochloride, 2,3,6,7-tetrahydro-9,10-dimethoxy-3-methyl-2-((2,4,6-trimethylphenyl)imino)-4H-pyrimido(6,1-a)isoquinolin-4-one], the Induction of apoptosis with patient CLL cells (Trequinsin 0.22 μM) was found to be 8.9; in the test on patient CLL cells (Trequinsin 2 μM) it was 19; with patient CLL cells (Trequinsin […]), 9.9.
As for `CCCCC#Cc1nc(N)c2ncn([C@@H]3O[C@H](C(=O)NCC)[C@@H](O)[C@H]3O)c2n1` [HE-NECA, hexynyladenosine-5′-N-ethylcarboxamide], at A2A receptor, the Ki was around 27 nM.

A word on the Ki: it is the equilibrium dissociation constant of an inhibitor or competing ligand from its target.
